What follows are compounds tested against T1, human LPA1 (Homo sapiens, UniProt Q92633) (assay: LPA1 functional antagonist assay (LPA-induced calcium flux)). Details: CHO cells overexpressing human LPA1; calcium flux induced by 10 nM LPA; read-out: hLPA1 IC50.
T1 construct: expressed in transfected cells; host or cells: Chinese hamster ovary (CHO) cells
Format: cell-based
Method: The effectiveness of compounds of the present invention as LPA1 inhibitors can be determined in an LPA1 functional antagonist assay as follows:
The cells were then equilibrated to room temperature for 30 minutes before the assay. […] IC50 values were determined by fitting data to a 4-parameter logistic equation (GraphPad Prism, San Diego CA).

T1 sequence (Q92633 whole entry): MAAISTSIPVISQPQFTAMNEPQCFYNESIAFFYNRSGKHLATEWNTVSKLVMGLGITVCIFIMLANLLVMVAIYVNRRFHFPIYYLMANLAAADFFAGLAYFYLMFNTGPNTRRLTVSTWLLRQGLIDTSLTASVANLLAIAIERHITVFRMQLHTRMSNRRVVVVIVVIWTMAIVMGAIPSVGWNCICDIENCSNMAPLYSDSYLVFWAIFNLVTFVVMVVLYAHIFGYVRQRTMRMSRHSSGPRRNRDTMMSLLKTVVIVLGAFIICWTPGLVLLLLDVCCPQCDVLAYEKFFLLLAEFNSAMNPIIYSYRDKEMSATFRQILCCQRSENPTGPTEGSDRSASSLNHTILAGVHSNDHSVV

Structure (SMILES)	IC50
Cc1noc(-c2ccc(OC[C@@H]3CC[C@H]3C(=O)O)cc2)c1COC(=O)N(C)C1CCCC1 (racemic) [Example 1, (±)-(1R,2R)-2-((4-(4-(((cyclopentyl(methyl)carbamoyl)oxy)methyl)-3-methylisoxazol-5-yl)phenoxy)methyl)cyclobutane-1-carboxylic acid]	187 nM
CCc1ccnc(OCc2c(-c3ccc(OC[C@@H]4CC[C@H]4C(=O)O)c(C)n3)nnn2C)n1 (racemic) [Example 14, (±)-(1R,2R)-2-(((6-(5-(((4-ethylpyrimidin-2-yl)oxy)methyl)-1-methyl-1H-1,2,3-triazol-4-yl)-2-methylpyridin-3-yl)oxy)methyl)cyclobutane-1-carboxylic acid]	382 nM
Cc1nc(-c2nnn(C)c2COc2noc(C3CC3)n2)ccc1OC[C@@H]1CC[C@H]1C(=O)O (racemic) [Example 15, (±)-(1R,2R)-2-(((6-(5-(((5-cyclopropyl-1,2,4-oxadiazol-3-yl)oxy)methyl)-1-methyl-1H-1,2,3-triazol-4-yl)-2-methylpyridin-3-yl)oxy)methyl)cyclobutane-1-carboxylic acid]	128 nM
COc1cc(OCc2c(-c3ccc(OC[C@@H]4CC[C@H]4C(=O)O)c(C)n3)nnn2C)ncn1 (racemic) [Example 19, (±)-(1R,2R)-2-(((6-(5-(((6-methoxy-pyrimidin-4-yl)oxy)methyl)-1-methyl-1H-1,2,3-triazol-4-yl)-2-methylpyridin-3-yl)oxy)methyl)cyclobutane-1-carboxylic acid]	121 nM
Cc1nc(-c2nnn(C)c2CNc2nccc(Oc3ccccc3)n2)ccc1OC[C@@H]1CC[C@H]1C(=O)O (racemic) [Example 22, (±)-(1R,2R)-2-(((2-methyl-6-(1-methyl-5-(((4-phenoxypyrimidin-2-yl)amino)methyl)-1H-1,2,3-triazol-4-yl)pyridin-3-yl)oxy)methyl)cyclobutane-1-carboxylic acid]	149 nM
Cc1nc(-c2nnn(C)c2COC(=O)N(C)CC2CC2)ccc1OC[C@@H]1CC[C@H]1C(=O)O (racemic) [Example 31, (±)-(1R,2R)-2-(((6-(5-((((Cyclopropylmethyl)(methyl)carbamoyl)oxy)methyl)-1-methyl-1H-1,2,3-triazol-4-yl)-2-methylpyridin-3-yl)oxy)methyl) cyclobutanecarboxylic acid]	184 nM
Cc1nc(-c2nnn(C)c2CNC(=O)OCCC2CC2)ccc1OC[C@@H]1CC[C@H]1C(=O)O (racemic) [Example 33, (±)-(1R,2R)-2-(((6-(5-((((2-Cyclopropylethoxy)carbonyl)amino)methyl)-1-methyl-1H-1,2,3-triazol-4-yl)-2-methylpyridin-3-yl)oxy)methyl)cyclobutanecarboxylic acid]	326 nM
Cc1nc(-c2nnn(C)c2NC(=O)OCC(C)C)ccc1OC[C@@H]1CC[C@H]1C(=O)O (racemic) [Example 34, (±)-(1R,2R)-2-(((6-(5-((Isobutoxycarbonyl)amino)-1-methyl-1H-1,2,3-triazol-4-yl)-2-methylpyridin-3-yl)oxy)methyl)cyclobutane-1-carboxylic acid]	1190 nM
Cc1nc(-c2nnn(C)c2Cn2nnnc2CC2CC2)ccc1OC[C@@H]1CC[C@H]1C(=O)O (racemic) [Example 37, (±)-(1R,2R)-2-(((6-(5-((5-(Cyclopropylmethyl)-1H-tetrazol-1-yl)methyl)-1-methyl-1H-1,2,3-triazol-4-yl)-2-methylpyridin-3-yl)oxy)methyl)cyclobutane-1-carboxylic acid]	267 nM
Cc1nc(-c2nnn(C)c2CNc2ncc(-c3ccccn3)o2)ccc1OC[C@@H]1CC[C@H]1C(=O)O (racemic) [Example 40, (±)-(1R,2R)-2-(((2-methyl-6-(1-methyl-5-(((5-(pyridin-2-yl)oxazol-2-yl)amino)methyl)-1H-1,2,3-triazol-4-yl)pyridin-3-yl)oxy)methyl)cyclobutanecarboxylic acid]	520 nM
Cc1nc(-c2nnn(C)c2CNC(=O)OCC(C)C)ccc1OC[C@@H]1CC[C@H]1C(=O)O (racemic) [Example 41, (±)-(1R,2R)-2-(((6-(5-(((isobutoxy-carbonyl)amino)methyl)-1-methyl-1H-1,2,3-triazol-4-yl)-2-methy-lpyridin-3-yl)oxy)methyl)cyclobutanecarboxylic acid]	3750 nM

The next compounds have a lower IC50 than those just listed; values first:

IC50	Structure (SMILES)
15.4 nM	Cc1noc(-c2ccc(OC[C@@H]3CC[C@H]3C(=O)O)cn2)c1CNc1nccc(-c2ccccn2)n1 (racemic) [Example 2, (±)-(1R,2R)-2-(((6-(3-methyl-4-(((4-(pyridin-2-yl)pyrimidin-2-yl)amino)methyl)isoxazol-5-yl)pyridin-3-yl)oxy)methyl)cyclobutane-1-carboxylic acid]
18 nM	Cc1nc(-c2onc(C)c2CNc2nccc(-c3ccccn3)n2)ccc1OC[C@@H]1CC[C@H]1C(=O)O (racemic) [Example 5, (±)-(1R,2R)-2-(((2-methyl-6-(3-methyl-4-(((4-(pyridin-2-yl)pyrimidin-2-yl)amino)methyl)isoxazol-5-yl)pyridin-3-yl)oxy)methyl)cyclobutane-1-carboxylic acid]
27 nM	Cc1nc(-c2nnn(C)c2COC(=O)N(C)CC2CCC2)ccc1OC[C@@H]1CC[C@H]1C(=O)O (racemic) [Example 6, (±)-(1R,2R)-2-(((6-(5-((((cyclobutylmethyl)(methyl)carbamoyl)oxy)methyl)-1-methyl-1H-1,2,3-triazol-4-yl)-2-methylpyridin-3-yl)oxy)methyl)cyclobutane-1-carboxylic acid]
42 nM	CCc1cc(OCc2c(-c3ccc(OC[C@@H]4CC[C@H]4C(=O)O)c(C)n3)nnn2C)ncn1 (racemic) [Example 11, (±)-(1R,2R)-2-(((6-(5-(((6-ethylpyrimidin-4-yl)oxy)methyl)-1-methyl-1H-1,2,3-triazol-4-yl)-2-methylpyridin-3-yl)oxy)methyl)cyclobutane-1-carboxylic acid]
25 nM	Cc1nc(-c2nnn(C)c2COc2noc(C(C)C)n2)ccc1OC[C@@H]1CC[C@H]1C(=O)O (racemic) [Example 16, (±)-(1R,2R)-2-(((6-(5-(((5-isopropyl-1,2,4-oxadiazol-3-yl)oxy)methyl)-1-methyl-1H-1,2,3-triazol-4-yl)-2-methylpyridin-3-yl)oxy)methyl)cyclobutane-1-carboxylic acid]
66 nM	Cc1nc(-c2nnn(C)c2COc2cc(OC3CC3)ncn2)ccc1OC[C@@H]1CC[C@H]1C(=O)O (racemic) [Example 17, (±)-(1R,2R)-2-(((6-(5-(((6-cyclopropoxy-pyrimidin-4-yl)oxy)methyl)-1-methyl-1H-1,2,3-triazol-4-yl)-2-methylpyridin-3-yl)oxy)methyl)cyclobutane-1-carboxylic acid]
83 nM	Cc1nc(-c2nnn(C)c2COc2cc(C3CC3)ncn2)ccc1OC[C@@H]1CC[C@H]1C(=O)O (racemic) [Example 18, (±)-(1R,2R)-2-(((6-(5-(((6-cyclopropyl-pyrimidin-4-yl)oxy)methyl)-1-methyl-1H-1,2,3-triazol-4-yl)-2-methylpyridin-3-yl)oxy)methyl)cyclobutane-1-carboxylic acid]
24 nM	CCOc1ccnc(NCc2c(-c3ccc(OC[C@@H]4CC[C@H]4C(=O)O)c(C)n3)nnn2C)n1 (racemic) [Example 21, (±)-(1R,2R)-2-(((6-(5-(((4-ethoxy-pyrimidin-2-yl)amino)methyl)-1-methyl-1H-1,2,3-triazol-4-yl)-2-methylpyridin-3-yl)oxy)methyl)cyclobutane-1-carboxylic acid]
117 nM	Cc1nc(-c2nnn(C)c2CNc2nccc(C(C)C)n2)ccc1OC[C@@H]1CC[C@H]1C(=O)O (racemic) [Example 23, (±)-(1R,2R)-2-(((6-(5-(((4-isopropyl-pyrimidin-2-yl)amino)methyl)-1-methyl-1H-1,2,3-triazol-4-yl)-2-methylpyridin-3-yl)oxy)methyl)cyclobutane-1-carboxylic acid]
56 nM	Cc1nc(-c2nnn(C)c2CNc2nccc(-c3ccccn3)n2)ccc1OC[C@@H]1CC[C@H]1C(=O)O (racemic) [Example 26, (±)-(1R,2R)-2-(((2-methyl-6-(1-methyl-5-(((4-(pyridin-2-yl)pyrimidin-2-yl)amino)methyl)-1H-1,2,3-triazol-4-yl)pyridin-3-yl)oxy)methyl)cyclobutane-1-carboxylic acid]
49 nM	Cn1nnc(-c2ccc(OC[C@@H]3CC[C@H]3C(=O)O)cn2)c1CNc1nccc(-c2ccccn2)n1 (racemic) [Example 27, (±)-(1R,2R)-2-(((6-(1-methyl-5-(((4-(pyridin-2-yl)pyrimidin-2-yl)amino)methyl)-1H-1,2,3-triazol-4-yl)pyridin-3-yl)oxy)methyl)cyclobutane-1-carboxylic acid]
70 nM	Cc1nc(-c2nnn(C)c2CNC(=O)OCc2ccccc2)ccc1OC[C@@H]1CC[C@H]1C(=O)O (racemic) [Example 32, (±)-(1R,2R)-2-(((6-(5-((((Benzyloxy)carbonyl)amino)methyl)-1-methyl-1H-1,2,3-triazol-4-yl)-2-methylpyridin-3-yl)oxy)methyl)cyclobutanecarboxylic acid]
49 nM	Cc1nc(-c2nnn(C)c2CNc2nccc(-c3ccccc3)n2)ccc1OC[C@@H]1CC[C@H]1C(=O)O (racemic) [Example 35, (±)-(1R,2R)-2-(((2-Methyl-6-(1-methyl-5-(((4-phenylpyrimidin-2-yl)amino)methyl)-1H-1,2,3-triazol-4-yl)pyridin-3-yl)oxy)methyl)cyclobutanecarboxylic acid]
86 nM	Cc1nc(-c2nnn(C)c2Cn2nnc(CC3CC3)n2)ccc1OC[C@@H]1CC[C@H]1C(=O)O (racemic) [Example 36, (±)-(1R,2R)-2-(((6-(5-((5-(Cyclopropylmethyl)-2H-tetrazol-2-yl)methyl)-1-methyl-1H-1,2,3-triazol-4-yl)-2-methylpyridin-3-yl)oxy)methyl)cyclobutane-1-carboxylic acid]

— patent publication US12466804B2 (BRISTOL-MYERS SQUIBB COMPANY, priority 2019, dated 2025)
